Columns and labels:
[1] = test system: peptide-pulsed T2 targets; assay type: cell-based, human
[2] = target: HLA-A2.1 (Homo sapiens, UniProt P04439, D140Y/D185E/D98H/E176V/E277Q/G131W/G231S/I119V/I121R/I166T/I218V/L300P/L318F/N151K/N90K/P208A/P217A/Q86G/Q94H/R138H/R169H/T345S); assay: Competition assay of peptide binding to HLA-A2.1 (inhibition of M1 58-66 binding, clone 12 lysis of EA2 targets)
[3] = test system: A2.1/K^b-Tg mice; assay: Peptide priming of A2.1/K^b-Tg mice, lytic activity of peptide-specific CTL; assay type: in vivo; parameters: Lytic Activity by Peptide-Specific CTL After Priming of A2.1/K^b-Tg Mice [Specific ^51Cr release (%)]: concentration or dose not given beside the values
[4] = test system: LG-2; assay: Cytotoxicity assay, killing of tumors (Table 7); assay type: cell-based, human; conditions: LG-2, EBV-trans., A2 +, Her-2 −
Protocol: (§1) One hundred and six (106) target cells were incubated at 37° C. with […] of sodium ^51Cr chromate for 90 minutes in the presence or absence of specific peptide. Cells were washed three times and resuspended in 5% RPMI. For the assay, 104 ^51Cr-labeled target cells were incubated with different concentrations of effector cells in a final volume of […] in U-bottomed 96-well plates. Supernatants were removed after 4-7 hrs at 37° C., and the percent specific lysis was determined by the following formula: […]
(§2) Tumor cells were preincubated for 24 hours prior to the assay in media supplemented with γ-interferon (γ-IFN, 20 ng/ml) plus tumor necrosis factor-α (TNF-α, 3 ng/ml). It is known that such pretreatment of tumor cells increases the expression of MHC I and adhesion molecules such as ICAM I on the surface of the cell thus enhancing their sensitivity to lysis by CTL. (See, e.g., Fisk, et al., Lympho. & Cylokine Res. 13: 125-131 (1994); Fady, et al., Cancer Immunol. Immunother. 37: 329-336 (1993).)

[5] = test system: MCF-7; assay: Cytotoxicity assay, killing of tumors (Table 7); assay type: cell-based, human; conditions: MCF-7, Breast, A2 +, Her-2 +
Protocol: as §1, §2

[6] = test system: MDA.M8231; assay: Cytotoxicity assay, killing of tumors (Table 7); assay type: cell-based, human; conditions: MDA.M8231, Breast, A2 +
Protocol: as §1, §2

[7] = test system: U87G; assay: Cytotoxicity assay, killing of tumors (Table 7); assay type: cell-based, human; conditions: U87G, Glioblastoma, A2 +, Her-2 −
Protocol: as §1, §2

[8] = test system: SAOS.175; assay: Cytotoxicity assay, killing of tumors (Table 7); assay type: cell-based, human; conditions: SAOS.175, Osteosarcoma, A2 +, Her-2 +
Protocol: as §1, §2

[9] = test system: CASKI; assay: Cytotoxicity assay, killing of tumors (Table 7); assay type: cell-based, human; conditions: CASKI, Cervix, A2 +, Her-2 +
Protocol: as §1, §2

[10] = test system: OVCAR-5; assay: Cytotoxicity assay, killing of tumors (Table 7); assay type: cell-based, human; conditions: OVCAR-5, Ovarian, A2 +, Her-2 +
Protocol: as §1, §2

[11] = test system: SKMEL-5; assay: Cytotoxicity assay, killing of tumors (Table 7); assay type: cell-based, human; conditions: SKMEL-5, Melanoma, A2 +, Her-2 +
Protocol: as §1, §2

[12] = test system: U2-OS; assay: Cytotoxicity assay, killing of tumors (Table 7); assay type: cell-based, human; conditions: U2-OS, Osteosarcoma, A2 +, Her-2 +
Protocol: as §1, §2

[13] = test system: BT549; assay: Cytotoxicity assay, killing of tumors (Table 7); assay type: cell-based, human; conditions: BT549, Breast, A2 +
Protocol: as §1, §2

[14] = test system: MDA.MB435; assay: Cytotoxicity assay, killing of tumors (Table 7); assay type: cell-based, human; conditions: MDA.MB435, Breast, A2 −, Her-2 +
Protocol: as §1, §2

[15] = test system: Hep-G2; assay: Cytotoxicity assay, killing of tumors (Table 7); assay type: cell-based, human; conditions: Hep-G2, Hepatoma, A2 +, Her-2 +
Protocol: as §1, §2

[16] = test system: JY; assay: Cytotoxicity assay, killing of tumors (Table 7); assay type: cell-based, human; conditions: JY, Lymphoma, A2 +, Her-2 −
Protocol: as §1, §2

[17] = test system: MALME-3M; assay: Cytotoxicity assay, killing of tumors (Table 7); assay type: cell-based, human; conditions: MALME-3M, Melanoma, A2 +, Her-2 +
Protocol: as §1, §2

[18] = test system: T98G; assay: Cytotoxicity assay, killing of tumors (Table 7); assay type: cell-based, human; conditions: T98G, Glioblastoma, A2 +, Her-2 +
Protocol: as §1, §2

[19] = test system: SV80; assay: Cytotoxicity assay, killing of tumors (Table 7); assay type: cell-based, human; conditions: SV80, Fibroblast, A2 +, Her-2 −
Protocol: as §1, §2

[20] = test system: ST486; assay: Cytotoxicity assay, killing of tumors (Table 7); assay type: cell-based, human; conditions: ST486, Lymphoma, A2 +, Her-2 −
Protocol: as §1, §2

[21] = test system: SW480; assay: Cytotoxicity assay, killing of tumors (Table 7); assay type: cell-based, human; conditions: SW480, Colon, A2 +, Her-2 +
Protocol: as §1, §2

[22] = test system: NCI.H1355; assay: Cytotoxicity assay, killing of tumors (Table 7); assay type: cell-based, human; conditions: NCI.H1355, Lung, A2 +
Protocol: as §1, §2

[23] = + CYT (γ-IFN plus TNF-α, 24 hours)

STPPPGTRV [hu-wt-p53 149-157]
peptide concentration required for equivalent lysis of T2 targets by A2 vs. A2.1/K^b derived CTL (fold less) [1]: 3 fold
A2.1-binding activity / affinity for the presenting MHC class I molecule (in words) [2]: intermediate affinity
Lytic Activity by Peptide-Specific CTL After Priming of A2.1/K^b-Tg Mice [Specific ^51Cr release (%)] ([3]; E:T ratio of 60:1, peptide-pulsed T2A2/K^b targets, highest of at least three individual mice): 91%
A2.1/K^b-restricted peptide-specific CTL response of A2.1/K^b-Tg mice (in words) ([3]; mouse, in vivo): detectable

VMAGVGSPYV [Peptide H7]
Killing of Tumors Expressing Her-2/neu (percent specific lysis) [4, 23]: 3%
Killing of Tumors Expressing Her-2/neu (percent specific lysis) ([4]; no cytokines): 1%
Killing of Tumors Expressing Her-2/neu (percent specific lysis) [5, 23]: 40%
Killing of Tumors Expressing Her-2/neu (percent specific lysis) ([5]; no cytokines): 7%
Killing of Tumors Expressing Her-2/neu (percent specific lysis) [6, 23]: 89%
Killing of Tumors Expressing Her-2/neu (percent specific lysis) ([6]; no cytokines): 26%
Killing of Tumors Expressing Her-2/neu (percent specific lysis) [7, 23]: 1%
Killing of Tumors Expressing Her-2/neu (percent specific lysis) ([7]; no cytokines): 1%
Killing of Tumors Expressing Her-2/neu (percent specific lysis) [8, 23]: 35%
Killing of Tumors Expressing Her-2/neu (percent specific lysis) ([8]; no cytokines): 27%
Killing of Tumors Expressing Her-2/neu (percent specific lysis) [9, 23]: 20%
Killing of Tumors Expressing Her-2/neu (percent specific lysis) ([9]; no cytokines): 9%
Killing of Tumors Expressing Her-2/neu (percent specific lysis) [10, 23]: 23%
Killing of Tumors Expressing Her-2/neu (percent specific lysis) ([10]; no cytokines): 13%
Killing of Tumors Expressing Her-2/neu (percent specific lysis) [11, 23]: 40%
Killing of Tumors Expressing Her-2/neu (percent specific lysis) ([11]; no cytokines): 16%
Killing of Tumors Expressing Her-2/neu (percent specific lysis) [12, 23]: 62%
Killing of Tumors Expressing Her-2/neu (percent specific lysis) ([12]; no cytokines): 30%
Killing of Tumors Expressing Her-2/neu (percent specific lysis) [13, 23]: 36%
Killing of Tumors Expressing Her-2/neu (percent specific lysis) ([13]; no cytokines): 2%
Killing of Tumors Expressing Her-2/neu (percent specific lysis) [14, 23]: 1%
Killing of Tumors Expressing Her-2/neu (percent specific lysis) ([14]; no cytokines): 1%
Killing of Tumors Expressing Her-2/neu (percent specific lysis) [15, 23]: 29%
Killing of Tumors Expressing Her-2/neu (percent specific lysis) ([15]; no cytokines): 4%
Killing of Tumors Expressing Her-2/neu (percent specific lysis) [16, 23]: 2%
Killing of Tumors Expressing Her-2/neu (percent specific lysis) ([16]; no cytokines): 4%
Killing of Tumors Expressing Her-2/neu (percent specific lysis) [17, 23]: 14%
Killing of Tumors Expressing Her-2/neu (percent specific lysis) ([17]; no cytokines): 4%
Killing of Tumors Expressing Her-2/neu (percent specific lysis) [18, 23]: 93%
Killing of Tumors Expressing Her-2/neu (percent specific lysis) ([18]; no cytokines): 29%
Killing of Tumors Expressing Her-2/neu (percent specific lysis) [19, 23]: 2%
Killing of Tumors Expressing Her-2/neu (percent specific lysis) ([19]; no cytokines): 2%
Killing of Tumors Expressing Her-2/neu (percent specific lysis) [20, 23]: 8%
Killing of Tumors Expressing Her-2/neu (percent specific lysis) ([20]; no cytokines): 5%
Killing of Tumors Expressing Her-2/neu (percent specific lysis) [21, 23]: 17%
Killing of Tumors Expressing Her-2/neu (percent specific lysis) ([21]; no cytokines): 2%
Killing of Tumors Expressing Her-2/neu (percent specific lysis) [22, 23]: 62%
Killing of Tumors Expressing Her-2/neu (percent specific lysis) ([22]; no cytokines): 13%

— patent publication US7402314B2, “In vivo activation of tumor-specific cytotoxic T cells” (The Scripps Research Institute, priority 1995, dated 2008)
